Experimental data taken from publication PMC12345137 (mBio, 2025).
Entries after “also recorded” stand apart in the source; their conditions may differ. Positions of bridges follow the written chain, without caps; N, C: chain ends. Residues, ends and D or L forms follow the SMILES beside them.

Legend:
Format in all cases: cell-based
S. epidermidis agr-III = S. epidermidis agr-III (Staphylococcus epidermidis, UniProt Q8VSX2); assay: cell-based; settings: for QS interaction in words (inhibition / activation), S. epidermidis agr-III: fluorescent reporter strain, peptides tested at 1000, 50, 2.5, 0.125 nM or in dose-response
Summary of the method: (§1)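 Fluorescence of the agr-driven P3 reporter, read after 22–24 h of growth with peptide at 37°C, was corrected for medium background and divided by OD600. Activity is given relative to wells without peptide, and IC50 values were fitted by non-linear regression with variable slope.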

S. epidermidis agr-II = S. epidermidis agr-II (Staphylococcus epidermidis, UniProt Q8VSX5); assay: cell-based; settings: for QS interaction in words (inhibition / activation), S. epidermidis agr-II: fluorescent reporter strain, peptides tested at 1000, 50, 2.5, 0.125 nM or in dose-response
Summary of the method: as §1

S. aureus agr-IV = S. aureus agr-IV (Staphylococcus aureus, UniProt Q309Z2); assay: cell-based
Summary of the method: as §1

S. aureus agr-I = S. aureus agr-I (Staphylococcus aureus, UniProt O07911); assay: Fluorescence reporter assay for agr interference, screening and IC50 (AH1677, P3-YFP)
Experimental: Peptides were evaluated for the ability to interfere with agr-mediated quorum sensing in S. aureus (AH1677, AH430, AH1747, and AH1872 for agr-I–IV, respectively) ([40]) using reporter strains expressing yellow fluorescent protein (YFP) upon agr activation. Interference with agr-mediated quorum sensing in S. epidermidis (AH3408, AH3623, and AH3409 for agr-I–III, respectively) ([45]), and S. lugdunensis (AH4031 for agr-I) ([37]) was evaluated using reporter strains expressing superfolder green fluorescent protein (sGFP) upon agr activation. Overnight cultures of the reporter strains were grown in TSB medium containing chloramphenicol (CAM, 10 μg/mL for S. aureus) or erythromycin (ERM, 10 μg/mL of S. epidermidis and S. lugdunensis) and diluted 1:100 in fresh TSB medium containing the same antibiotic. Assays were performed in sterile black 96-well plates with a clear bottom. […] DMSO stock solutions of peptides (1 mM) were diluted in TSB media and added (15 μL) in technical triplicate to the 96-well plate, followed by diluted bacterial overnight cultures (135 μL). […] Wells containing 150 μL TSB medium were used to measure background fluorescence. The 96-well plates were incubated in a humidified incubator at 37°C shaking at 1,000 rpm for 22–24 h and fluorescence (for GFP: excitation 479 nm, emission 520 nm; for YFP: excitation 500 nm, emission 541 nm; automatic gain), and OD600 values were subsequently measured using a plate reader. Background fluorescence was subtracted from all wells and further normalized to the corresponding OD600 value of the respective wells. The average fluorescence of control wells was used as a relative measure for 100% activation of the agr-circuit, and bar graphs were generated using GraphPad Prism 10.4 software. All assays were performed in at least a biological duplicate.
Overnight cultures of the reporter strains were grown in TSB medium containing chloramphenicol (CAM, 10 μg/mL for S. aureus) or erythromycin (ERM, 10 μg/mL of S. epidermidis and S. lugdunensis) and diluted 1:100 in fresh TSB medium containing the same antibiotic. Assays were performed in sterile black 96-well plates with clear bottoms. Peptide solutions (15 μL) in 1:5 serial dilutions from DMSO stock solutions (1 mM) in TSB medium were added to the 96-well plate in technical duplicate followed by diluted bacterial overnight cultures (135 μL). […] Wells containing 150 μL TSB medium were used to measure background fluorescence. The 96-well plates were incubated in a humidified incubator at 37°C shaking at 1,000 rpm for 22–24 h and fluorescence (for GFP: excitation 479 nm, emission 520 nm; for YFP: excitation 500 nm, emission 541 nm; automatic gain), and OD600 values were subsequently measured using a plate reader. Background fluorescence was subtracted from all wells and further normalized to the corresponding OD600 value of the respective wells. The average fluorescence of control wells was used as a relative measure for 100% activation of the agr-circuit. Relative agr activity was plotted to obtain IC50 values by non-linear regression with variable slope using GraphPad Prism 10.4 software. All assays were performed in biological triplicate.

[1] = fluorescent reporter strain, peptides tested at 1000, 50, 2.5, 0.125 nM or in dose-response

Chain of S. aureus agr-IV (Q309Z2 entry or part of it): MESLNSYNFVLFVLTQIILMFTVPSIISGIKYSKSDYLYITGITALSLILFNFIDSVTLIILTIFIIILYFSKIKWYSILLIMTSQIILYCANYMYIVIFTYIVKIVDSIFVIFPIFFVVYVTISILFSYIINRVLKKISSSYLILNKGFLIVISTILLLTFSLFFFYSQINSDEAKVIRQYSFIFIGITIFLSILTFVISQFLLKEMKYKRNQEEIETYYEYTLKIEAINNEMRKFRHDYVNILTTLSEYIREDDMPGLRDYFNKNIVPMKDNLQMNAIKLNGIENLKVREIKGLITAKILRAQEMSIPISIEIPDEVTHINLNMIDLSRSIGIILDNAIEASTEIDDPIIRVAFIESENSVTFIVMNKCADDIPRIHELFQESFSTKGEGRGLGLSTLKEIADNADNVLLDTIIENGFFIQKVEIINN
Chain of S. epidermidis agr-II (Q8VSX5 entry or part of it): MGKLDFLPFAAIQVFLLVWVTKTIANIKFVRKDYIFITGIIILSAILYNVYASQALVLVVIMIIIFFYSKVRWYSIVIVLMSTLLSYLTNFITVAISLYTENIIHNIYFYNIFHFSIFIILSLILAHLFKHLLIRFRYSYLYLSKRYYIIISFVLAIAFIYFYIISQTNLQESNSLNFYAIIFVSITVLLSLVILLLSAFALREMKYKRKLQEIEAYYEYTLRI
Chain of S. aureus agr-I (O07911 entry or part of it): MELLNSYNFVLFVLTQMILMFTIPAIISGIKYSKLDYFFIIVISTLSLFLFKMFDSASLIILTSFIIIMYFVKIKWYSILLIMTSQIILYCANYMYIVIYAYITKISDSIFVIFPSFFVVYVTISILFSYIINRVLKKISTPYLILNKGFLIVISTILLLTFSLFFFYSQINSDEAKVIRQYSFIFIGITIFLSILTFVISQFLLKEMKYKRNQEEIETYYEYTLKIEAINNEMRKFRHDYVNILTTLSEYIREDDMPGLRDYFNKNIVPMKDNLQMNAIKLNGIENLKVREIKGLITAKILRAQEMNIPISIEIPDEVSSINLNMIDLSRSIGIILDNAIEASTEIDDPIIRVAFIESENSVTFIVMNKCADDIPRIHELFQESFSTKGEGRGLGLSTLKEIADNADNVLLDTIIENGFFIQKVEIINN
Chain of S. epidermidis agr-III (Q8VSX2 entry or part of it): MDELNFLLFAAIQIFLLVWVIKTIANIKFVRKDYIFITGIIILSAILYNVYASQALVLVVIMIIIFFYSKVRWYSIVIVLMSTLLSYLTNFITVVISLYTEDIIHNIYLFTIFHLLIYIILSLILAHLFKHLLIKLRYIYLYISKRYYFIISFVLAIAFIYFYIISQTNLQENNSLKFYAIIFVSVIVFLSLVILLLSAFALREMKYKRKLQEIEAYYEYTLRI

Row | Compound | QS interaction in words (inhibition / activation), S. epidermidis agr-III (S. epidermidis agr-III) | QS interaction in words (inhibition / activation), S. epidermidis agr-II (S. epidermidis agr-II) | QS inhibition at […], S. aureus agr-IV (S. aureus agr-IV; […] peptide, fluorescent reporter strain) | QS interaction in words (inhibition / activation), S. epidermidis agr-III (S. epidermidis agr-III; listed as S. simulans AIP-I) | IC50 (S. epidermidis agr-II) | IC50 (S. aureus agr-IV) | IC50 (S. aureus agr-I) | IC50 (S. epidermidis agr-III) | QS interaction in words (inhibition / activation), S. aureus agr-IV (S. aureus agr-IV; [1]) | QS interaction in words (inhibition / activation), S. aureus agr-I (S. aureus agr-I; [1]) | QS interaction in words (inhibition / activation), S. epidermidis agr-III (S. epidermidis agr-III; listed as S. simulans AIP-III)
1 | S. aureus AIP-III D4A [compound 57, reference compound] | weak interference | weak interference | > 95% |  |  |  |  |  |  |  | 
2 | CC(C)C[C@@H]1NC(=O)[C@@H](NC(=O)[C@@H]2CCCN2C(=O)[C@H](CC(N)=O)NC(=O)[C@H](Cc2ccc(O)cc2)NC(=O)[C@@H](N)CCCCN)CSC(=O)[C@H](CC(C)C)NC(=O)[C@H](Cc2ccccc2)NC(=O)CNC1=O [compound 32, S. simulans AIP-I] (H-KYNPCLGFL; thioester 5-C; N-terminus assumed) | activated; also recorded: activators |  |  | activation | 0.26 ± 0.01 nM | 10 nM | 0.34 ± 0.02 nM |  |  |  | 
3 | NCCCC[C@H](N)C(=O)N[C@@H](Cc1ccc(O)cc1)C(=O)N[C@@H](Cc1ccc(O)cc1)C(=O)N1CCC[C@H]1C(=O)N[C@H]1CSC(=O)[C@H](Cc2ccccc2)NC(=O)[C@H](Cc2ccc(O)cc2)NC(=O)CNC(=O)[C@H](Cc2c[nH]c3ccccc23)NC1=O [compound 33, S. simulans AIP-II] (H-KYYPCWGYF; thioester 5-C) | inhibited; also recorded: sub-nanomolar inhibition | inhibited |  |  | 0.26 ± 0.08 nM | 31 ± 7 nM | 0.45 nM | 0.6 ± 0.2 nM | inhibited | inhibited | 
4 | NCCCC[C@H](N)C(=O)N[C@@H](Cc1ccc(O)cc1)C(=O)N[C@@H](CC(N)=O)C(=O)N1CCC[C@H]1C(=O)N[C@H]1CSC(=O)[C@H](Cc2ccccc2)NC(=O)[C@H](Cc2ccc(O)cc2)NC(=O)CNC(=O)[C@H](Cc2c[nH]c3ccccc23)NC1=O [compound 34, S. simulans AIP-III] (H-KYNPCWGYF; thioester 5-C) | activated; also recorded: activators |  |  |  | 0.11 ± 0.02 nM | 34 nM | 0.18 ± 0.03 nM |  |  |  | activator
5 | CC[C@H](C)[C@@H]1NC(=O)[C@H](Cc2ccccc2)NC(=O)[C@H](CC(=O)O)NC(=O)[C@@H](NC(=O)[C@@H](NC(=O)[C@H](CO)NC(=O)[C@@H](N)Cc2ccc(O)cc2)[C@@H](C)O)CSC(=O)[C@H](CCSC)NC1=O [compound 1, S. aureus AIP-I] (H-YSTCDFIM; thioester 4-C) |  |  |  |  | > 1000 nM |  |  | > 1000 nM |  |  | 
